Test results from patent publication US10266535B2, “Inhibitor of FLT3 kinase and use thereof” (HEFEI INSTITUTES OF PHYSICAL SCIENCE, CHINESE ACADEMY OF …, priority 2015, dated 2019).

Tests used:
[1] = tested on: MV4-11 (expressing FLT3/ITD mutant gene); experiment: Cell proliferation, Cell Titer-Glo, MV4-11; type: cell-based; settings: Homo sapiens, MV4-11, 72 h, read-out: MV4-11 IC50 [μM]
Procedure, shortened: (§1)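 Read-out: luminescence from ATP in live cells (CellTiter-Glo), taken as viable cell number. Cell lines were built in-house.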

[2] = tested on: MOLM-14 (expressing FLT3/ITD mutant gene and wild-type FLT3 gene); experiment: Cell proliferation, Cell Titer-Glo, MOLM-14; type: cell-based; settings: Homo sapiens, MOLM-14, 72 h, read-out: MOLM-14 IC50 [μM]
Procedure, shortened: as §1

[3] = tested on: TEL-BaF3-FLT3/ITD (stably expressing FLT3/ITD mutant activated kinase); experiment: Cell proliferation, Cell Titer-Glo, TEL-BaF3-FLT3/ITD; type: cell-based, mouse; settings: Mus musculus, 72 h, read-out: TEL-BaF3-FLT3/ITD IC50 [μM], incubated for 72 hours
Procedure, shortened: as §1

[4] = tested on: TEL-FLT3-BaF3 (stably expressing FLT3 kinase); experiment: Cell proliferation, Cell Titer-Glo, TEL-FLT3-BaF3; type: cell-based; settings: Mus musculus, 72 h, read-out: TEL-FLT3-BaF3 IC50 [μM]
Description: (§2) The above cell lines were constructed by our laboratory.
(§3) The number of viable cells was determined by quantification of ATP in living cells using the Cell Titer-Glo® (Promega, USA) chemiluminescence cell viability assay kit.

[5] = tested on: TEL-BaF3-FLT3-D835Y (stably expressing FLT3 D835Y mutant activated kinase); experiment: Cell proliferation, Cell Titer-Glo, TEL-BaF3-FLT3-D835Y; type: cell-based; settings: Mus musculus, 72 h, read-out: TEL-BaF3-FLT3-D835Y IC50 [μM]
Procedure, shortened: as §1

[6] = tested on: BaF3-FLT3-ITD-D835Y (stably expressing FLT3/ITD D835Y mutant activated kinase); experiment: Cell proliferation, Cell Titer-Glo, BaF3-FLT3-ITD-D835Y; type: cell-based; settings: Mus musculus, 72 h, read-out: BaF3-FLT3-ITD-D835Y IC50 [μM]
Description: as §2, §3

[7] = tested on: BaF3-FLT3-ITD-F691L (stably expressing FLT3/ITD F691L mutant activated kinase); experiment: Cell proliferation, Cell Titer-Glo, BaF3-FLT3-ITD-F691L; type: cell-based; settings: Mus musculus, 72 h, read-out: BaF3-FLT3-ITD-F691L IC50 [μM]
Description: as §2, §3

pro-B cell BaF3 = experiment: Cell proliferation, Cell Titer-Glo, BaF3; type: cell-based; settings: Mus musculus, incubated for 72 hours
Procedure, shortened: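 Chemiluminescent ATP detection (CellTiter-Glo) gave the number of viable cells, used as the measure of proliferation in these laboratory-made BaF3 lines.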

[8] = tested on: U937 (expressing wild-type FLT3 gene); experiment: Cell proliferation, Cell Titer-Glo, U937; type: cell-based, human; settings: Homo sapiens, U-937, 72 h, read-out: U937 IC50 [μM], incubated for 72 hours
Procedure, shortened: as §1

[9] = tested on: TEL-BaF3-BMX (stably expressing BMX kinase); experiment: Cell proliferation, Cell Titer-Glo, TEL-BaF3-BMX; type: cell-based; settings: Mus musculus; incubated for 72 hours
Procedure, shortened: as §1

[10] = tested on: TEL-cKIT-BaF3 (stably expressing cKIT kinase); experiment: Cell proliferation, Cell Titer-Glo, TEL-cKIT-BaF3; type: cell-based; settings: Mus musculus; incubated for 72 hours
Procedure, shortened: as §1

[11] = tested on: TPR-MET-BaF3 (stably expressing MET kinase); experiment: Cell proliferation, Cell Titer-Glo, TPR-MET-BaF3; type: cell-based; settings: Mus musculus; incubated for 72 hours
Procedure, shortened: as §1

[12] = tested on: TEL-BaF3-BLK (stably expressing BLK kinase); experiment: Cell proliferation, Cell Titer-Glo, TEL-BaF3-BLK; type: cell-based; settings: Mus musculus; incubated for 72 hours
Procedure, shortened: as §1

[13] = tested on: Signaling pathways of FLT3 in MV4-11 and MOLM-14 cell lines; experiment: Effects on upstream and downstream signaling pathways of FLT3 in cells; type: cell-based, human; settings: for C-Myc (degradation; for AC220 phosphorylation) / phosphorylation of STAT5 / phosphorylation of protein kinase FLT3: treated for 4 hours
MOLM-13 cell lines = experiment: Cell apoptosis, Western Blot of PARP and Caspase 3 cleavage, MOLM-13; type: cell-based, human; settings: MOLM-13, 0.1 μM
Description: (§4) Western Blot was used to detect the effects of different concentrations of drugs on protein cleavage of DNA repair enzyme, poly ADP-ribose polymerase PARP and cysteinyl aspartate specific proteinase Caspase 3 at different time intervals (FIG. 3).

MV4-11 cell lines = experiment: Cell apoptosis, Western Blot of PARP and Caspase 3 cleavage, MV4-11; type: cell-based, human; settings: after 24 hours
Description: as §4

[14] = tested on: MV4-11 cell lines carrying FLT3/ITD mutant gene; experiment: Cell cycle distribution by flow cytometry; type: cell-based, human; settings: MV4-11, 0.1 μM, 24 hours
[15] = tested on: MOLM-13 (expressing FLT3/ITD mutant gene and wild-type FLT3 gene); experiment: Cell proliferation, Cell Titer-Glo, MOLM-13; type: cell-based; settings: Homo sapiens, MOLM-13, 72 h, read-out: MOLM-13 IC50 [μM]
Procedure, shortened: as §1

[16] = tested on: BaF3-tel-cKit-N882K (stably expressing cKIT N882K mutant activated kinase); experiment: Cell proliferation, Cell Titer-Glo, BaF3-tel-cKit-N882K; type: cell-based; settings: Mus musculus; incubated for 72 hours
Description: as §2, §3

[17] = tested on: BaF3-tel-cKit-D816V (stably expressing cKIT D816V mutant activated kinase); experiment: Cell proliferation, Cell Titer-Glo, BaF3-tel-cKit-D816V; type: cell-based; settings: Mus musculus; incubated for 72 hours
Description: as §2, §3

[18] = tested on: BaF3-tel-cKit-T670I (stably expressing cKIT T670I mutant activated kinase); experiment: Cell proliferation, Cell Titer-Glo, BaF3-tel-cKit-T670I; type: cell-based; settings: Mus musculus; incubated for 72 hours
Description: as §2, §3

[19] = tested on: TEL-BaF3-EGFR (stably expressing EGFR kinase); experiment: Cell proliferation, Cell Titer-Glo, TEL-BaF3-EGFR; type: cell-based; settings: Mus musculus; incubated for 72 hours
Description: as §2, §3

[20] = tested on: TEL-JAK1-BaF3 (stably expressing JAK1 kinase); experiment: Cell proliferation, Cell Titer-Glo, TEL-JAK1-BaF3; type: cell-based; settings: Mus musculus; incubated for 72 hours
Procedure, shortened: as §1

BTK protein kinase = BTK protein kinase (Homo sapiens (Human), UniProt Q06187); experiment: In vitro inhibition activity (enzymatic activity), ADP-Glo, BTK; type: biochemical; settings: ATP 10 μM
MOLM-14 cells = experiment: Nude mouse subcutaneous tumor model with MOLM-14 cells; type: in vivo; settings: oral gavage, 2 to 3 weeks
Description: More than 30 mice (5-week-old) (Balb/c-nu female mice, purchased from Shanghai Snake Experimental Animal Co., Ltd.) were inoculated subcutaneously with MOLM-14 cells in 1×10^7 cells/mouse, the changes in body weight and tumor volume were recorded daily (tumor volume=Tumor length×tumor width^2/2).

Sequence of BTK protein kinase (Q06187 whole entry): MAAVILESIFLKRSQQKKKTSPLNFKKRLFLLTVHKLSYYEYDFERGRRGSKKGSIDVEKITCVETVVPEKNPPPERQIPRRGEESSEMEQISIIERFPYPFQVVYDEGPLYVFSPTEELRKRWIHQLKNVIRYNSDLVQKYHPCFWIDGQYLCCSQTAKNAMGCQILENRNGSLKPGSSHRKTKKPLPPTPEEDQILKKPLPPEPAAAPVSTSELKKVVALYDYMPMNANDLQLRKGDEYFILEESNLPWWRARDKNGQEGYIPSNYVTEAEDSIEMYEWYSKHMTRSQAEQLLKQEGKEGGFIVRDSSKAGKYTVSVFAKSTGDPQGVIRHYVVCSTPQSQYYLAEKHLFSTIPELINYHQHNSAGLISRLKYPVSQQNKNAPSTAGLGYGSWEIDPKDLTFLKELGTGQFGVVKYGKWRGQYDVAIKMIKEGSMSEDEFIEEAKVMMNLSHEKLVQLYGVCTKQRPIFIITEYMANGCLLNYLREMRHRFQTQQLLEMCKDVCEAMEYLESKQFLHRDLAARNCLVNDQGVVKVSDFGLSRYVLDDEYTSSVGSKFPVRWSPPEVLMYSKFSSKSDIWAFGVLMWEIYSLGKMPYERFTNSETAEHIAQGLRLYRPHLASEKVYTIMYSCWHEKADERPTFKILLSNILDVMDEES

SMILES	IC50 [1] [µM]	IC50 [2] [µM]	IC50 [3] [µM]	IC50 [6] [µM]	IC50 [7] [µM]	IC50 (pro-B cell BaF3) [nM]	IC50 [8] [µM]	IC50 [9] [nM]	IC50 [10] [nM]	IC50 [11] [nM]	IC50 [12] [nM]	C-Myc (degradation; for AC220 phosphorylation) [13]	phosphorylation of STAT5 [13]	phosphorylation of protein kinase FLT3 [13]	number of cells captured in G0-G1 phase [14] [%]	also measured
CC(C)C[C@@H](N)C(=O)N[C@H]1CC[C@@H](n2nc(-c3ccc(Oc4ccccc4)cc3)c3c(N)ncnc32)CC1.Cl (stereo in doubt) [Compound 84, (R)-2-amino-N-(4-(4-amino-3-(4-phenoxyphenyl)-1H-pyrazolo[3,4-d]pyrimidin-1-yl)cis-1,4-cyclohexyl)-4-methylpentanamide hydrochloride]	0.01	0.002	< 0.0003	0.28	0.43	750	3.3	63	6100	2900	3	significant effects on the degradation	very strong inhibitory effects	strongly inhibited	89.92	IC50 [4]: 0.013 µM; IC50 [5]: 0.002 µM; efficacy compared with Control Compound AC220 ([13]; AC220 at 0.1 μM): better efficacy; cleavage of Caspase 3 (MOLM-13 cell lines; after 24 hours): very significant cleavage; cleavage of poly ADP-ribose polymerase PARP (MOLM-13 cell lines; after 24 hours): very significant cleavage; cleavage of Caspase 3 (MV4-11 cell lines; MV 4-11, 0.03 μM): cleavage; cleavage of poly ADP-ribose polymerase PARP (MV4-11 cell lines; MV 4-11, 0.03 μM): relatively significant cleavage
CN(C)CC(=O)N1CCC[C@@H](n2nc(-c3ccc(Oc4ccccc4)cc3)c3c(N)ncnc32)C1 [Compound 22, (R)-1-(3-(4-amino-(4-phenoxyphenyl)-1H-pyrazolo[3,4-d]pyrimidin-1-yl)piperidin-1-yl)-2-(dimethylamino)ethanone]	0.022	0.042	0.011	0.17	0.22	4900	9.7	280	1900	2200	940	significant effects on the degradation	very strong inhibitory effects	strongly inhibited	95.78	IC50 [15]: 0.021 µM; IC50 [16]: 1200 nM; IC50 [17]: 1000 nM; IC50 [18]: 3600 nM; IC50 [19]: 1800 nM; IC50 [20]: 3800 nM; IC50 (BTK protein kinase): 190 nM; cleavage of Caspase 3 (MOLM-13 cell lines; after 12 hours): very significant cleavage; cleavage of poly ADP-ribose polymerase PARP (MOLM-13 cell lines; after 12 hours): very significant cleavage; cleavage of Caspase 3 (MV4-11 cell lines; MV 4-11, 0.1 μM): very significant cleavage; cleavage of poly ADP-ribose polymerase PARP (MV4-11 cell lines; MV 4-11, 0.1 μM): significant cleavage; tumor growth of the mice (MOLM-14 cells; 12.5-50 mg/kg): significantly inhibited; tumor volume growth of the mice (MOLM-14 cells; dose not specified): significantly slowed down
